In patent US20140303082A1, “SELECTIVE GPCR LIGANDS” (Medical Research Council, priority 2011, published 2014):
Positions count from the first letter of the chain named. Where a SMILES comes first, the peptide text is derived from it. Where no end group is shown, it is not given here.

Key:
AT2R-Y189N = biological target: T1, AT2R-Y189N (Homo sapiens, UniProt P50052, Y189N); test: Radioligand binding assays, AT2R mutant; conditions: competition vs 2 nM [125I]-AII, 2 hours on ice, Cheng and Prusoff
T1 construct: expressed in transfected cells; host or cells: HEK293T, transient, crude membranes
T1 sequence (P50052 1-363 Y189N): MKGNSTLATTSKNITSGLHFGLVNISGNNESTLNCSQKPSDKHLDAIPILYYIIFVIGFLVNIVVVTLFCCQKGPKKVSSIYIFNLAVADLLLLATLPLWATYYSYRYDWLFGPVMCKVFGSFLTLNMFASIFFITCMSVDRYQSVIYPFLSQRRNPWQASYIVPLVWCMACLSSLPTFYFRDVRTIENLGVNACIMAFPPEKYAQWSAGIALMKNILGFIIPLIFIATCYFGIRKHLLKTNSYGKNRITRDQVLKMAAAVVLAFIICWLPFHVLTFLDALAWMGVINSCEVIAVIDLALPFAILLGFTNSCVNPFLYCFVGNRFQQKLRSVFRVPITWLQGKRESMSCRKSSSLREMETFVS
Procedure: (§1) Mutagenesis. AT2R mutants were generated as described elsewhere^44.
(§2) Cell culture and transient transfection. HEK293T cells were maintained at 37° C. in Dulbecco's modified Eagle's medium (DMEM) supplemented with 10% (v/v) fetal bovine serum (FBS), 2 mM glutamine, 100 U/ml penicillin, and 100 μg/ml streptomycin. Cells were seeded into 10 cm dish and 24 hours later were transfected with either AT1aR (pcDNA3.1) or AT2R (pcDNAI/Amp) using GeneJuice transfection reagent according to the manufacturer's instructions. Cells were harvested 48 hours after transfection. A pellet of transfected HEK293T cells (2×10^6 cells) was resuspended in ice-cold 0.5 ml binding buffer (50 mM Tris-HCl pH 7.4, 100 mM NaCl, 10 mM MgCl2, 1 mM EDTA, 0.2% BSA and 0.025% Bacitracin) containing protease inhibitors (Complete™, Roche). The cells were transferred to a 1.5 ml microcentrifuge tube and subjected to two cycles of freeze-thawing. The lysed cells were sheared by passaging seven times through a 26-gauge needle and the crude membranes were pelleted by ultracentrifugation (60 min, 120,000×g, 4° C.). The crude membranes were then resuspended in a final volume of 0.2 ml ice-cold binding buffer containing protease inhibitors corresponding to a protein concentration 3.3 μg/μl as determined by the amido black protein assay^45.
(§3) Radioligand binding assays. […] Non-specific binding was determined in presence of 6 μM cold AII. […] Samples were incubated for 2 hours at 4° C. Receptor-bound and free radioligand were separated by filtration through Whatman GF/B filters, pre-soaked with 0.3% polyethylamine. The filters were washed with 5 ml of ice-cold binding buffer and transferred to scintillation tubes. Radioactivity was counted on a Beckman LS6000 liquid scintillation counter and data were analyzed by non-linear regression using Prism software (GraphPad).

AT2R-F272A = biological target: T2, AT2R-F272A (Homo sapiens, UniProt P50052, F272A); test: Radioligand binding assays, AT2R mutant; conditions: competition vs 2 nM [125I]-AII, 2 hours on ice, Cheng and Prusoff
T2 construct: expressed in transfected cells; host or cells: HEK293T, transient, crude membranes
T2 sequence (P50052 1-363 F272A): T1 sequence (P50052 1-363 Y189N) with N189Y, F272A
Procedure: as §1, §2, §3

AT2R-Y189A = biological target: T3, AT2R-Y189A (Homo sapiens, UniProt P50052, Y189A); test: Radioligand binding assays, AT2R mutant; conditions: competition vs 2 nM [125I]-AII, 2 hours on ice, Cheng and Prusoff
T3 construct: expressed in transfected cells; host or cells: HEK293T, transient, crude membranes
T3 sequence (P50052 1-363 Y189A): T1 sequence (P50052 1-363 Y189N) with N189A
Procedure: as §1, §2, §3

AT2R-F272H = biological target: T4, AT2R-F272H (Homo sapiens, UniProt P50052, F272H); test: Radioligand binding assays, AT2R mutant; conditions: competition vs 2 nM [125I]-AII, 2 hours on ice, Cheng and Prusoff
T4 construct: expressed in transfected cells; host or cells: HEK293T, transient, crude membranes
T4 sequence (P50052 1-363 F272H): T1 sequence (P50052 1-363 Y189N) with N189Y, F272H
Procedure: as §1, §2, §3

AT1aR [1] = biological target: T5, AT1aR (Rattus norvegicus, UniProt P25095); test: Radioligand binding assays (saturation and competition), HEK293T membranes; conditions: for Ki: competition vs 2 nM [125I]-AII, 2 hours on ice, Cheng and Prusoff, receptor printed AT1R
T5 construct: expressed in transfected cells; host or cells: HEK293T, transient, crude membranes
T5 sequence (P25095 1-359): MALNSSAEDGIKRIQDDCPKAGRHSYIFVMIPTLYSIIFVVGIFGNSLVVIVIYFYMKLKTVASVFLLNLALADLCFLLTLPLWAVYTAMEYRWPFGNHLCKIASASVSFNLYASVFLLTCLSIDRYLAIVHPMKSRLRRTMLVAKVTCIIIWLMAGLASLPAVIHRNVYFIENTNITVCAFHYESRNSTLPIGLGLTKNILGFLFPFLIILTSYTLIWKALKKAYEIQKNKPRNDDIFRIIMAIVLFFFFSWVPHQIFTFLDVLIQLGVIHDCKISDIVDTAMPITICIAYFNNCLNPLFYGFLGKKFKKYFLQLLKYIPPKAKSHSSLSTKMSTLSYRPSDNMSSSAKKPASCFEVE
Procedure: as §2, §3

AT2R wild type = test: as above
Procedure: as §2, §3

[2] = cis/trans isomer population in aqueous solution by NMR; assay type: physicochemical; conditions: cis amide bond at residue 6-Pro7, aqueous solution
Source text: Peptide synthesis and sample preparation. The synthesis of the following peptides: AII (D^1-R^2—V^3—Y^4—I^5—H^6—P^7—F^8); [Y]^6-AII (D^1-R^2—V^3—Y^4—I^5—Y^6—P^7—F^8); [4-OPO3H2—F]^6-AII, (D^1-R^2—V^3—Y^4—I^5-(4-OPO3H2—F)^6—P^7—F^8), [F]^6-AII, (D^1-R^2—V^3—Y^4—I^5—F^6—P^7—F^8) and [4-NO2—F]^6-AII, (D^1-R^2—V^3—Y^4—I^5-(4-NO2—F)^6—P^7—F^8) was achieved using Fmoc/tBu methodology. 2-Chlorotrityl chloride resin and N^α-Fmoc (9-fluorenylmethyloxycarbonyl) amino acids were used for the synthesis. Peptide purity was assessed by analytical HPLC (Nucleosil-120 C18, reversed phase, 250×4.0 mm), mass spectrometry (FABMS, ESIMS) and amino acid analysis. The samples were prepared for NMR spectroscopy by dissolving the peptide in 0.01 M KPi buffer (pH=4), containing 0.02 M KCl. 2,2-dimethyl-2-sila-pentane sulfonate (DSS) was added to a concentration of 1 mM as an internal chemical shift reference. Peptide concentration was commonly 4 mM in 90% ^1H2O/10% ^2H2O. Trace amounts of NaN3 were added as a preservative.
Inter-proton distances for AII were derived by measuring cross-peak intensities in the NOESY spectra. Intensities were calibrated to give a set of distance constrains using the NMRVIEW software package. NOEs cross peaks were separated into three distance categories according to their intensity. […]

AT1aR [3] = conditions: relative to AII; cited from earlier work
AT2R = biological target: T6, AT2R (Homo sapiens, UniProt P50052); conditions: relative to AII; cited from earlier work
T6 sequence (P50052 1-363): T1 sequence (P50052 1-363 Y189N) with N189Y

| Compound | Ki (AT2R-Y189N) [nM] | Ki (AT2R-F272A) [nM] | Ki (AT2R-Y189A) [nM] | Ki (AT2R-F272H) [nM] | Ki (AT1aR [1]) [nM] | lower affinity for AT2R in comparison to [Y]^6-AII (AT2R wild type; unpublished data) | %cis [2] [%] | other results |
| --- | --- | --- | --- | --- | --- | --- | --- | --- |
| CC[C@H](C)[C@H](NC(=O)[C@H](Cc1ccc(O)cc1)NC(=O)[C@@H](NC(=O)[C@H](CCCNC(=N)N)NC(=O)[C@@H](N)CC(=O)O)C(C)C)C(=O)N[C@@H](Cc1ccc(OP(=O)(O)O)cc1)C(=O)N1CCC[C@H]1C(=O)N[C@@H](Cc1ccccc1)C(=O)O [[4-OPO3H2—F]^6-AII, D^1-R^2—V^3—Y^4—I^5-(4-OPO3H2—F)^6—P^7—F^8] (HELM PEPTIDE1{D.R.V.Y.I.[O=C([C@H](Cc1ccc(OP(=O)(O)O)cc1)N[*:1])[*:2]].P.F}$$$$V2.0) | 200 | 250 | 51 | 21 | > 2500 |  |  |  |
| DRVYIYPF [[Y]^6-AII] | 10 | 16 | 12 | 16 | > 2500 |  |  |  |
| D^1-R^2—V^3—Y^4—I^5—F^6—P^7—F^8 (DRVYIFPF; Angiotensin-2; UniProt P01019 25-32, looked up, variant H6F) [[F]^6-AII, AII analogue with phenylalanine at position 6] |  |  |  |  |  | more than 50 times | ~20 | affinity for AT1aR compared with AT2R (in words) (AT2R wild type; unpublished data): same affinity for both AT1aR and AT2R |
| CC[C@H](C)[C@H](NC(=O)[C@H](Cc1ccc(O)cc1)NC(=O)[C@@H](NC(=O)[C@H](CCCNC(=N)N)NC(=O)[C@@H](N)CC(=O)O)C(C)C)C(=O)N[C@@H](Cc1c[nH]cn1)C(=O)N1CCC[C@H]1C(=O)N[C@@H](Cc1ccccc1)C(=O)O [[^125I]-AII, reference compound] |  |  |  |  |  |  |  | Kd (AT2R wild type; saturation assay, 2 hours on ice): 2.3 ± 0.3 nM |
| D^1-R^2—V^3—Y^4—I^5-(4-NO2—F)^6—P^7—F^8 [[4-NO2—F]^6-AII] |  |  |  |  |  | 300 times | ~5 | binding / affinity for AT1aR (in words) (AT1aR [1]): high affinity (nM) |
| Pro7Gly mutation in AII: literature AII analogue with Pro7 replaced by Gly (ref 16) (DRVYIHGF; Angiotensin-2; UniProt P01019 25-32, looked up, variant P7G) |  |  |  |  |  |  |  | lower affinity for AT1aR (AT1aR [3]): 150 times; affinity for the AT2R (in words) (AT2R): almost retained its affinity |
